According to publication PMC6309603 (Molecular diversity, 2018):
Where two headings read alike, the source gives them in different places.

Experiments:
BChE = BChE (Homo sapiens, UniProt P06276); experiment: biochemical
AChE = AChE (Homo sapiens, UniProt P22303); experiment: biochemical; settings: for Selectivity for AChE: IC50 (BChE)/IC50 (AChE)
[1] = read-out: IC50 BChE, means±SD of three assays, 30 min, 30 °C, pH 8.0
[2] = read-out: IC50 AChE, means±SD of three assays, 30 min, 30 °C, pH 8.0

AChE, sequence (P22303 32-614): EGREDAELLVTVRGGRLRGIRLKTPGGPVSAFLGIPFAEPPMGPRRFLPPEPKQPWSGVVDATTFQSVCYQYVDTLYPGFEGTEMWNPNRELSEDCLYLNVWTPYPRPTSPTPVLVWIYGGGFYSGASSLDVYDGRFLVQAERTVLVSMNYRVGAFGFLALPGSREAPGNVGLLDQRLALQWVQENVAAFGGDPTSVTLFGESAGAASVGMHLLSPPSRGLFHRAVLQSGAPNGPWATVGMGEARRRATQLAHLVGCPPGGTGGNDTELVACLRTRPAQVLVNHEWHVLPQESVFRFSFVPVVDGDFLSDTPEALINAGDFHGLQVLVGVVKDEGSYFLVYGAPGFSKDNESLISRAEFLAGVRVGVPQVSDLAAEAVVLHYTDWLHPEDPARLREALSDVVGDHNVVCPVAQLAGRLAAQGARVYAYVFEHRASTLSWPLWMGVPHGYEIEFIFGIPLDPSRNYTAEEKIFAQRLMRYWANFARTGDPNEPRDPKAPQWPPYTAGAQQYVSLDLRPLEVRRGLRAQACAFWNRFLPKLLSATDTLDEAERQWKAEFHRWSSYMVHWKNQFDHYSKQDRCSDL
BChE, sequence (P06276 29-602): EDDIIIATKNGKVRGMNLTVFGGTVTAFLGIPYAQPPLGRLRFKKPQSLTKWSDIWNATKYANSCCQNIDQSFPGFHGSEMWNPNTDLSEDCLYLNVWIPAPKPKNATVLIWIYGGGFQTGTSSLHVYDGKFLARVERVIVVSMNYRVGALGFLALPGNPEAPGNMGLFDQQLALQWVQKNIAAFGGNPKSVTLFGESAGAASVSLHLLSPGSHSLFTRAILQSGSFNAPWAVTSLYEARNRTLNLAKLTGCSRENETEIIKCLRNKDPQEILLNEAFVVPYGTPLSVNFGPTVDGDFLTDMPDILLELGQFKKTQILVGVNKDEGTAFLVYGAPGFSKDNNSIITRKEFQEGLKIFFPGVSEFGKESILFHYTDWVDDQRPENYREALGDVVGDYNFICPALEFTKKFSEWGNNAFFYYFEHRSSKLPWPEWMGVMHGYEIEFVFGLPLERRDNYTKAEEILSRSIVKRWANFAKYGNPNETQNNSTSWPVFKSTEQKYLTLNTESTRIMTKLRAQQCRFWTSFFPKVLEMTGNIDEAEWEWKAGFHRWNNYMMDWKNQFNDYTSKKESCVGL

Structure (SMILES)	IC50 (BChE) [µM]	IC50 (AChE) [µM]	inhibitory activity against AChE (in words) (AChE)	selectivity over BChE (in words) (AChE)	Selectivity for AChE (AChE)	IC50 (BChE; [1]) [µM]	IC50 (AChE; [2]) [µM]	inhibitory activity against BChE (in words) (BChE)
O=C(/C=C/c1ccccc1OCCN1CCCC1)c1cc2ccccc2oc1=O [Compound 7e, (E)-3-(3-(2-(2-(pyrrolidin-1-yl)ethoxy)phenyl)acryloyl)-2H-chromen-2-one]	3.76 ± 0.35	230 ± 14.8	poor inhibitory activity	poor selectivity	0.02			
COc1cc(/C=C/C(=O)c2cc3ccccc3oc2=O)ccc1OCCN1CCCCC1 [Compound 12m, (E)-3-(3-(3-methoxy-4-(2-(piperidin-1-yl)ethoxy)phenyl)acryloyl)-2H-chromen-2-one]	0.52 ± 0.01	0.37 ± 0.02			1.41			
COc1cc(/C=C/C(=O)c2cc3ccccc3oc2=O)cc(OC)c1OCCN(C)C [Compound 13k, (E)-3-(3-(4-(2-(dimethylamino)ethoxy)-3,5-dimethoxyphenyl)acryloyl)-2-chromen-2-one]					1.87	13.2 ± 0.32	7.07 ± 0.46	
O=C(/C=C/c1ccc(OCC(=O)N2CCCCC2)cc1)c1cc2ccccc2oc1=O [Compound 9f, (E)-3-(3-(4-(2-oxo-2-(piperidin-1-yl)ethoxy)phenyl)acryloyl)-2H-chromen-2-one]	> 500	> 500						
O=C(/C=C/c1ccccc1OCCN1CCCCC1)c1cc2ccccc2oc1=O [Compound 7f, (E)-3-(3-(2-(2-(piperidin-1-yl)ethoxy)phenyl)acryloyl)-2H-chromen-2-one]	4.5 ± 0.22	29.9 ± 0.98			0.15			
CN(C)C(=O)COc1ccc(/C=C/C(=O)c2cc3ccccc3oc2=O)cc1 [Compound 9d, (E)-N,N-dimethyl-2-(4-(3-oxo-3-(2-oxo-2H-chromen-3-yl)prop-1-en-1-yl)phenoxy)acetamide]	> 500	18.6 ± 1.06			>26.86			
CN(C)CCOc1ccc(/C=C/C(=O)c2cc3ccccc3oc2=O)cc1 [Compound 5d, (E)-3-(3-(4-(2-(dimethylamino)ethoxy)phenyl)acryloyl)-2H-chromen-2-one]	> 500	0.37 ± 0.03						
O=C(/C=C/c1ccc(OCC(=O)N2CCCC2)cc1)c1cc2ccccc2oc1=O [Compound 9e, (E)-3-(3-(4-(2-oxo-2-(pyrrolidin-1-yl)ethoxy)phenyl)acryloyl)-2H-chromen-2-one]	> 500	> 500						
CN(C)CCOc1cccc(/C=C/C(=O)c2cc3ccccc3oc2=O)c1 [Compound 6d, (E)-3-(3-(3-(2-(dimethylamino)ethoxy)phenyl)acryloyl)-2H-chromen-2-one]	15.3 ± 1.16	0.92 ± 0.07			16.64			
CN(C)C(=O)COc1cccc(/C=C/C(=O)c2cc3ccccc3oc2=O)c1 [Compound 10d, (E)-N,N-dimethyl-2-(3-(3-oxo-3-(2-oxo-2H-chromen-3-yl)prop-1-en-1-yl)phenoxy)acetamide]	44 ± 2.37	> 500			<0.09			
CN(C)CCOc1ccccc1/C=C/C(=O)c1cc2ccccc2oc1=O [Compound 7d, (E)-3-(3-(2-(2-(dimethylamino)ethoxy)phenyl)acryloyl)-2H-chromen-2-one]	15.2 ± 0.6	16.4 ± 0.22			0.92			
O=C(/C=C/c1ccc(OCCN2CCCCC2)cc1)c1cc2ccccc2oc1=O [Compound 5f, (E)-3-(3-(4-(2-(piperidin-1-yl)ethoxy)phenyl)acryloyl)-2H-chromen-2-one]	1.03 ± 0.05	0.69 ± 0.06			1.49			
CN(C)C(=O)COc1ccccc1/C=C/C(=O)c1cc2ccccc2oc1=O [Compound 11d, (E)-N,N-dimethyl-2-(2-(3-oxo-3-(2-oxo-2H-chromen-3-yl)prop-1-en-1-yl)phenoxy)acetamide]	> 500	> 500						
O=C(/C=C/c1ccccc1OCCN1CCOCC1)c1cc2ccccc2oc1=O [Compound 7h, (E)-3-(3-(2-(2-morpholinoethoxy)phenyl)acryloyl)-2H-chromen-2-one]	29 ± 1.23	261 ± 4.17			0.11			
COc1cc(/C=C/C(=O)c2cc3ccccc3oc2=O)ccc1OCCN(C)C [Compound 12k, (E)-3-(3-(4-(2-(dimethylamino)ethoxy)-3-methoxyphenyl)acryloyl)-2H-chromen-2-one]	8.48 ± 0.29	1.65 ± 0.09			5.15			
O=C(/C=C/c1ccccc1OCC(=O)N1CCCC1)c1cc2ccccc2oc1=O [Compound 11e, (E)-3-(3-(2-(2-oxo-2-(pyrrolidin-1-yl)ethoxy)phenyl)acryloyl)-2H-chromen-2-one]	> 500	> 500						
CCN(CC)CCOc1cccc(/C=C/C(=O)c2cc3ccccc3oc2=O)c1 [Compound 6g, (E)-3-(3-(3-(2-(diethylamino)ethoxy)phenyl)acryloyl)-2H-chromen-2-one]	1.12 ± 0.11	51.3 ± 1.04			0.02			

Structure (SMILES)	IC50 (BChE) [µM]	IC50 (AChE) [µM]	inhibitory activity against AChE (in words) (AChE)	selectivity over BChE (in words) (AChE)	Selectivity for AChE (AChE)	IC50 (BChE; [1]) [µM]	IC50 (AChE; [2]) [µM]	inhibitory activity against BChE (in words) (BChE)
O=C(/C=C/c1cccc(OCC(=O)N2CCCC2)c1)c1cc2ccccc2oc1=O [Compound 10e, (E)-3-(3-(3-(2-oxo-2-(pyrrolidin-1-yl)ethoxy)phenyl)acryloyl)-2H-chromen-2-one]	> 500	> 500						
CC(C)=CCOc1ccc(/C=C/C(=O)c2cc3ccccc3oc2=O)cc1 [Compound 5j, (E)-3-(3-(4-(3-methylbut-2-enyloxy)phenyl)-prop-2-enoyl)-2H-chromen-2-one]	> 500	> 500						
CC(C)=CCOc1cccc(/C=C/C(=O)c2cc3ccccc3oc2=O)c1 [Compound 6j, (E)-3-(3-(3-(3-methylbut-2-enyloxy)phenyl)-prop-2-enoyl)-2H-chromen-2-one]	> 500	> 500						
COc1cc(/C=C/C(=O)c2cc3ccccc3oc2=O)ccc1OCCN1CCCC1 [Compound 12l, (E)-3-(3-(3-methoxy-4-(2-(pyrrolidin-1-yl)ethoxy)phenyl)acryloyl)-2H-chromen-2-one]	0.46 ± 0.01	1.67 ± 0.04			0.28			
CC(C)CCOc1cccc(/C=C/C(=O)c2cc3ccccc3oc2=O)c1 [Compound 6i, (E)-3-(3-(3-(isopentyloxy)phenyl)acryloyl)-2H-chromen-2-one]	> 500	> 500						
O=C(/C=C/c1ccccc1OCC(=O)N1CCCCC1)c1cc2ccccc2oc1=O [Compound 11f, (E)-3-(3-(2-(2-oxo-2-(piperidin-1-yl)ethoxy)phenyl)acryloyl)-2H-chromen-2-one]	106 ± 3.09	> 500						
O=C(/C=C/c1ccc(OCCN2CCOCC2)cc1)c1cc2ccccc2oc1=O [Compound 5h, (E)-3-(3-(4-(2-morpholinoethoxy)phenyl)acryloyl)-2H-chromen-2-one]	> 500	> 500	almost has no inhibitory activity			> 500	> 500	almost has no inhibitory activity
CC(C)CCOc1ccccc1/C=C/C(=O)c1cc2ccccc2oc1=O [Compound 7i, (E)-3-(3-(2-(isopentyloxy)phenyl)acryloyl)-2H-chromen-2-one]	> 500	> 500						
CC(C)CCOc1ccc(/C=C/C(=O)c2cc3ccccc3oc2=O)cc1 [Compound 5i, (E)-3-(3-(4-(isopentyloxy)phenyl)acryloyl)-2H-chromen-2-one]	> 500	> 500						
O=C(/C=C/c1cccc(OCCN2CCOCC2)c1)c1cc2ccccc2oc1=O [Compound 6h, (E)-3-(3-(3-(2-morpholinoethoxy)phenyl)acryloyl)-2H-chromen-2-one]	> 500	> 500						
COc1cc(/C=C/C(=O)c2cc3ccccc3oc2=O)cc(OC)c1OCCN1CCCCC1 [Compound 13m, (E)-3-(3-(3,5-dimethoxy-4-(2-(piperidin-1-yl)ethoxy)phenyl)acryloyl)-2H-chromen-2-one]	6.41 ± 0.36	9.58 ± 0.8			0.67			
O=C(/C=C/c1cccc(OCCN2CCCCC2)c1)c1cc2ccccc2oc1=O [Compound 6f, (E)-3-(3-(3-(2-(piperidin-1-yl)ethoxy)phenyl)acryloyl)-2H-chromen-2-one]	4.01 ± 0.14	0.61 ± 0.02			6.61			
COc1cc(/C=C/C(=O)c2cc3ccccc3oc2=O)cc(OC)c1OCCN1CCCC1 [Compound 13l, (E)-3-(3-(3,5-dimethoxy-4-(2-(pyrrolidin-1-yl)ethoxy)phenyl)acryloyl)-2H-chromen-2-one]	13.6 ± 0.53	29 ± 1.68			0.47			
CCN(CC)CCOc1ccc(/C=C/C(=O)c2cc3ccccc3oc2=O)cc1 [Compound 5g, (E)-3-(3-(4-(2-(diethylamino)ethoxy)phenyl)acryloyl)-2H-chromen-2-one]	6.21 ± 0.19	4.34 ± 0.29			1.43			
O=C(/C=C/c1cccc(OCCN2CCCC2)c1)c1cc2ccccc2oc1=O [Compound 6e, (E)-3-(3-(3-(2-(pyrrolidin-1-yl)ethoxy)phenyl)acryloyl)-2H-chromen-2-one]	4.62 ± 0.16	3.25 ± 0.14	moderate inhibitory activity	low selectivity	1.42			
CC(C)=CCOc1ccccc1/C=C/C(=O)c1cc2ccccc2oc1=O [Compound 7j, (E)-3-(3-(2-(3-methylbut-2-enyloxy)phenyl)-prop-2-enoyl)-2H-chromen-2-one]	100 ± 6.84	> 500			<0.20			
O=C(/C=C/c1cccc(OCC(=O)N2CCCCC2)c1)c1cc2ccccc2oc1=O [Compound 10f, (E)-3-(3-(3-(2-oxo-2-(piperidin-1-yl)ethoxy)phenyl)acryloyl)-2H-chromen-2-one]	223 ± 11.5	152 ± 12.8			1.46			
